Biological target: human MRGPRD (Homo sapiens, UniProt Q8TDS7)
Test: MRGPRD antagonist activity, IP-One HTRF assay in CHO cells stably expressing human MRGPRD (versus 100 μM β-Alanine agonist)
Assay type: cell-based
How it was run: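 IP-1 HTRF read-out, with IC50 from HTRF ratio curves and percent antagonism relative to maximal efficacy (mean, SEM). Antagonists and agonist were co-incubated 1 h at 37 °C plus 1 h at room temperature on overnight-plated MRGPRD-CHO cells in LiCl-containing Tris buffer, pH 8.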

Chain of human MRGPRD (Q8TDS7 whole entry): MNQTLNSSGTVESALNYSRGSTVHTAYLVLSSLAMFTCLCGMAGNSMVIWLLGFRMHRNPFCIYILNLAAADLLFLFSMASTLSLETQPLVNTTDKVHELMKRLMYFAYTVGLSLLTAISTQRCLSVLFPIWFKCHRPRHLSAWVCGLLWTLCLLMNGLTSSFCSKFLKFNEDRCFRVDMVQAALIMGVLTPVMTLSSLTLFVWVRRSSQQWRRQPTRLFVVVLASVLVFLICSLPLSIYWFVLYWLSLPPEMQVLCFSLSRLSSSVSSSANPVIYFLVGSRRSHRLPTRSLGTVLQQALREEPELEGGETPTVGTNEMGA

| IC50 [nM] | Compound |
| --- | --- |
| < 100 | CCn1nc(C)c(-c2ccc(-n3nnc(C(=O)Nc4ccnc(C)c4)c3C3CC3)cc2)c1C [Compound 9-1, 5-cyclopropyl-1-(4-(1-ethyl-3,5-dimethyl-1H-pyrazol-4-yl)phenyl)-N-(2-methylpyridin-4-yl)-1H-1,2,3-triazole-4-carboxamide] |
| < 100 | CCc1cc(NC(=O)c2nnn(-c3ccc(-c4c(C)nn(C)c4C)cc3)c2C2CC2)ccn1 [Compound 9-2] |
| < 100 | CCc1cc(NC(=O)c2nnn(-c3ccc(-c4c(C)nn(-c5ccccc5)c4C)cc3)c2C2CC2)ccn1 [Compound 9-3] |
| < 100 | Cc1ncccc1CNC(=O)c1nnn(-c2ccc(-c3c(C)nn(-c4ccccc4)c3C)cc2)c1C1CC1 [Compound 9-4] |
| < 100 | CCn1nc(C)c(-c2ccc(-n3nnc(C(=O)NCc4cccnc4C)c3C3CC3)cc2)c1C [Compound 9-5] |
| < 100 | Cc1ccc(C2(NC(=O)c3nnn(-c4ccc(-c5c(C)nn(-c6ccccc6)c5C)cc4)c3C3CC3)CC2)cn1 [Compound 9-6] |
| 100 to 500 | Cc1ccc(C2(NC(=O)c3nnn(-c4ccc(-c5ccc(C#N)c(F)c5)cc4)c3C3CC3)CC2)cn1 [Compound 9-7] |
| 100 to 500 | Cc1nn(-c2ccccc2)c(C)c1-c1ccc(-n2nnc(C(=O)NC3(c4cncc(Cl)c4)CC3)c2C2CC2)cc1 [Compound 9-8] |
| 100 to 500 | Cc1nn(C)c(C)c1-c1ccc(-n2nnc(C(=O)NCc3ccc(C(C)C)nc3)c2C2CC2)cc1 [Compound 9-9] |
| 100 to 500 | CCn1nc(C)c(-c2ccc(-n3nnc(C(=O)NCc4ccc(C)nc4)c3C3CC3)cc2)c1C [Compound 9-10] |
| 100 to 500 | CCn1cc(CNC(=O)c2nnn(-c3ccc(-c4c(C)nn(CC)c4C)cc3)c2C2CC2)cn1 [Compound 9-11] |
| 100 to 500 | Cc1cncc(CNC(=O)c2nnn(-c3ccc(-c4c(C)nn(-c5ccccc5)c4C)cc3)c2C2CC2)c1 [Compound 9-12] |
| 100 to 500 | CCc1ccc(C2(NC(=O)c3nnn(-c4ccc(-c5ccc(C#N)c(F)c5)cc4)c3C3CC3)CC2)cn1 [Compound 9-13] |
| 100 to 500 | Cc1nn(-c2ccccc2)c(C)c1-c1ccc(-n2nnc(C(=O)NCc3cccnc3)c2C2CC2)cc1 [Compound 9-14] |
| 100 to 500 | Cc1nn(-c2ccccc2)c(C)c1-c1ccc(-n2nnc(C(=O)NCc3ccc(C(C)C)nc3)c2C2CC2)cc1 [Compound 9-15] |
| 100 to 500 | CCc1cc(NC(=O)c2nnn(-c3ccc(-c4c(C)nn(CC)c4C)cc3)c2C2CC2)ccn1 [Compound 9-16] |
| 100 to 500 | CCc1ccc(C2(NC(=O)c3nnn(-c4ccc(-c5ccc(C#N)cc5C)cc4)c3C3CC3)CC2)cn1 [Compound 9-17] |
| 100 to 500 | CCn1nc(C)c(-c2ccc(-n3nnc(C(=O)NCc4cnn(C)c4)c3C3CC3)cc2)c1C [Compound 9-18] |
| 100 to 500 | CCn1nc(C)c(-c2ccc(-n3nnc(C(=O)NCc4cncc(C)c4)c3C3CC3)cc2)c1C [Compound 9-19] |
| 100 to 500 | CCc1ccc(C2(NC(=O)c3nnn(-c4ccc(-c5c(C)nn(-c6ccccc6)c5C)cc4)c3C3CC3)CC2)cn1 [Compound 9-20] |
| 100 to 500 | CCn1nc(C)c(-c2ccc(-n3nnc(C(=O)NCc4ccc(C(C)C)nc4)c3C3CC3)cc2)c1C [Compound 9-21] |
| 100 to 500 | Cc1ccc(C2(NC(=O)c3nnn(-c4ccc(-c5ccc(C#N)cc5C)cc4)c3C3CC3)CC2)cn1 [Compound 9-22] |

| IC50 [nM] | Compound |
| --- | --- |
| 100 to 500 | CCn1nc(C)c(-c2ccc(-n3nnc(C(=O)NCc4cnccc4C)c3C3CC3)cc2)c1C [Compound 9-23] |
| 100 to 500 | COc1ccc(C2(NC(=O)c3nnn(-c4ccc(-c5ccc(C#N)cc5C)cc4)c3C3CC3)CC2)cn1 [Compound 9-24] |
| 100 to 500 | CCn1nc(C)c(-c2ccc(-n3nnc(C(=O)NCc4cccnc4)c3C3CC3)cc2)c1C [Compound 9-25] |
| 500 to 1000 | Cc1ccncc1CNC(=O)c1nnn(-c2ccc(-c3c(C)nn(-c4ccccc4)c3C)cc2)c1C1CC1 [Compound 9-26] |
| 500 to 1000 | Cc1nn(-c2ccccc2)c(C)c1-c1ccc(-n2nnc(C(=O)Nc3ccc(NS(C)(=O)=O)cc3)c2C2CC2)cc1 [Compound 9-27] |
| 500 to 1000 | CCn1nc(C)c(-c2ccc(-n3nnc(C(=O)Nc4ccc(NS(C)(=O)=O)cc4)c3C3CC3)cc2)c1C [Compound 9-28] |
| 500 to 1000 | Cc1nn(-c2ccccc2)c(C)c1-c1ccc(-n2nnc(C(=O)N3Cc4cnn(C)c4C3)c2C2CC2)cc1 [Compound 9-29] |
| 1000 to 3000 | Cc1ccc(NC(=O)c2nnn(-c3ccc(-c4ccc(C#N)cc4C)cc3)c2C2CC2)cn1 [Compound 9-30] |
| 1000 to 3000 | CCc1ccc(C2(NC(=O)c3nnn(-c4ccc(-c5c(C)nn(CC)c5C)cc4)c3C3CC3)CC2)cn1 [Compound 9-31] |
| 1000 to 3000 | CCn1nc(C)c(-c2ccc(-n3nnc(C(=O)N4Cc5cnn(C)c5C4)c3C3CC3)cc2)c1C [Compound 9-32] |
| 1000 to 3000 | CCc1ccc(C2(NC(=O)c3nnn(-c4ccc(-c5c(C)nn(C)c5C)cc4)c3C3CC3)CC2)cn1 [Compound 9-33] |
| 1000 to 3000 | Cc1nn(C)c(C)c1-c1ccc(-n2nnc(C(=O)Nc3ccc(NS(C)(=O)=O)cc3)c2C2CC2)cc1 [Compound 9-34] |
| 100 to 500 | COc1ccc(C2(NC(=O)c3nnn(-c4ccc(-c5ccc(C#N)c(F)c5)cc4)c3C3CC3)CC2)cn1 [Compound 9-35] |
| 100 to 500 | N#Cc1ccc(-c2ccc(-n3nnc(C(=O)Nc4ccnc(F)c4)c3C3CC3)cc2)cc1F [Compound 9-36] |
| 500 to 1000 | N#Cc1ccc(-c2ccc(-n3nnc(C(=O)Nc4cc(F)nc(F)c4)c3C3CC3)cc2)cc1F [Compound 9-37] |
| < 100 | Cc1cc(NC(=O)c2nnn(-c3ccc(-c4c(C)nn(-c5ccccc5)c4C)cc3)c2C2CC2)ccn1 [Compound 10-1, 5-cyclopropyl-1-(4-(3,5-dimethyl-1-phenyl-1H-pyrazol-4-yl)phenyl)-N-(2-methylpyridin-4-yl)-1H-1,2,3-triazole-4-carboxamide] |
| > 3000 | Cc1nn2cccnc2c1-c1ccc(-n2nnc(C(=O)NC3(c4cncc(Cl)c4)CC3)c2C2CC2)cc1 [Compound 10-2] |
| < 100 | Cc1cc(NC(=O)c2nnn(-c3ccc(-c4c(C)nn5cccnc45)cc3)c2C2CC2)ccn1 [Compound 10-3] |
| 100 to 500 | CCc1cc(NC(=O)c2nnn(-c3ccc(-c4c(C)nn5cccnc45)cc3)c2C2CC2)ccn1 [Compound 10-4] |
| 100 to 500 | Cc1ccc(CNC(=O)c2nnn(-c3ccc(-c4c(C)nn5cccnc45)cc3)c2C2CC2)cn1 [Compound 10-5] |
| 100 to 500 | CCn1cc(CNC(=O)c2nnn(-c3ccc(-c4c(C)nn5cccnc45)cc3)c2C2CC2)cn1 [Compound 10-6] |
| 1000 to 3000 | Cc1nn2cccnc2c1-c1ccc(-n2nnc(C(=O)Nc3ccc(NS(C)(=O)=O)cc3)c2C2CC2)cc1 [Compound 10-7] |

Further lines, the compound ahead of its results:

| Compound | IC50 [nM] |
| --- | --- |
| CCc1ccc(-n2nnc(C(=O)Nc3ccncc3)c2C2CC2)cc1-c1cccc(C(C)=O)c1 [Compound 7-317] | 1000 to 3000 |
| Cc1ccc(-c2cccc(-n3nnc(C(=O)Nc4ccncc4)c3C3CC3)c2)cc1 [Compound 7-318] | 1000 to 3000 |
| Cc1cc(-n2nnc(C(=O)Nc3ccncc3)c2C2CC2)ccc1-c1ccc(C#N)cc1 [Compound 7-319] | 1000 to 3000 |
| COc1ccccc1-c1cccc(-n2nnc(C(=O)Nc3ccncc3)c2C2CC2)c1 [Compound 7-320] | 1000 to 3000 |
| Cc1cccc(-c2cccc(-n3nnc(C(=O)Nc4ccncc4)c3C3CC3)c2)c1 [Compound 7-321] | 1000 to 3000 |
| Cc1ccccc1-c1cccc(-n2nnc(C(=O)Nc3ccncc3)c2C2CC2)c1 [Compound 7-322] | 1000 to 3000 |
| CCc1cccc(-c2cccc(-n3nnc(C(=O)Nc4ccncc4)c3C3CC3)c2)c1 [Compound 7-323] | 1000 to 3000 |
| O=C(Nc1ccncc1)c1nnn(-c2cccc(-c3cccc(Cl)c3)c2)c1C1CC1 [Compound 7-324] | 1000 to 3000 |
| Cc1nn(C)c(C)c1-c1cccc(-n2nnc(C(=O)Nc3ccncc3)c2C2CC2)c1 [Compound 7-325] | 1000 to 3000 |
| Cn1cc(-c2cccc(-n3nnc(C(=O)Nc4ccncc4)c3C3CC3)c2)cn1 [Compound 7-326] | 1000 to 3000 |
| O=C(Nc1ccncc1)c1nnn(-c2ccc(-c3ccccc3-c3ccccc3)cc2)c1C1CC1 [Compound 7-327] | 1000 to 3000 |
| O=C(Nc1ccncc1)c1nnn(-c2cccc(-c3cccc(-c4ccccc4)c3)c2)c1C1CC1 [Compound 7-328] | > 3000 |
| O=C(Nc1ccncc1)c1nnn(-c2cccc(-c3cnn(C(F)F)c3)c2)c1C1CC1 [Compound 7-329] | > 3000 |
| N#CCc1ccc(-c2cccc(-n3nnc(C(=O)NC4(c5cccnc5)CC4)c3C3CC3)c2)c(F)c1 [Compound 7-330] | > 3000 |
| Cc1nn(C)c(C)c1-c1ccc(-n2nnc(C(=O)Nc3ccncc3)c2C2CC2)cc1C(F)(F)F [Compound 7-331] | > 3000 |
| Cc1ccc(CNC(=O)c2nnn(-c3cccc(-c4ccn(C)n4)c3)c2C2CC2)cn1 [Compound 7-332] | > 3000 |
| Cc1ccc(CNC(=O)c2nnn(-c3cccc(-c4cnn(C5CC5)c4)c3)c2C2CC2)cn1 [Compound 7-333] | > 3000 |
| N#Cc1ccccc1-c1cccc(-n2nnc(C(=O)Nc3ccncc3)c2C2CC2)c1 [Compound 7-334] | > 3000 |
| Cc1nn(C)c(C)c1-c1ccc(-n2nnc(C(=O)Nc3ccncc3)c2C2CC2)cc1OC(F)(F)F [Compound 7-335] | > 3000 |
| Cc1cc(NC(=O)c2nnn(-c3ccc(-c4c(C)nn5ccccc45)cc3)c2C2CC2)ccn1 [Compound 8-1] | < 100 |
| Cc1cc(NC(=O)c2nnn(-c3ccc(-c4c(C)nn(C5CCC5)c4C)cc3)c2C2CC2)ccn1 [Compound 8-2, 1-(4-(1-cyclobutyl-3,5-dimethyl-1H-pyrazol-4-yl)phenyl)-5-cyclopropyl-N-(2-methylpyridin-4-yl)-1H-1,2,3-triazole-4-carboxamide] | < 100 |
| Cc1ccc(CNC(=O)c2nnn(-c3ccc(-c4c(C)nn(C)c4F)cc3)c2C2CC2)cn1 [Compound 8-3] | 100 to 500 |
| Cc1ccc(CNC(=O)c2nnn(-c3ccc(-c4cnn5c4CCC5)cc3)c2C2CC2)cn1 [Compound 8-4] | 1000 to 3000 |
